Consider 16 molecules from ChEMBL document CHEMBL1133901, “Synthesis and potassium channel opening activity of substituted 10H-benzo[4,5]furo[3,2-b]indole-and 5,10-dihydro-indeno[1,2-b]indole-1-carboxylic acids” (Bioorg Med Chem Lett, 2001).

The species entered for assay [1] is Rattus norvegicus. The assay is described as follows: Concentration that relaxed KCl-induced contractions in rat detrusor strips by 50%. It counts as functional.
Assay [2] is filed under the species Rattus norvegicus. The assay is described as follows: Concentration that relaxed KCl-induced contractions in rat aortic rings by 50%. Format: functional. The following applies: Aorta.

As to `O=C(O)c1cccc2c1Cc1c-2[nH]c2ccc(OC(F)(F)F)cc12`, the IC50 in assay [1] worked out at 15.4 µM. The same measure, in the same setting: the same measure for `Cn1c2c(C(=O)O)cccc2c2oc3ccc(Br)cc3c21`: more than 30 µM; for `COC(=O)c1cccc2c1[nH]c1c3cc(Br)ccc3oc21`: more than 30 µM.

In turn, `NS(=O)(=O)c1ccc2[nH]c3c(c2c1)Cc1c(C(=O)O)cccc1-3` displayed an IC50 in assay [1] of more than 30 µM.

In assay [1], `O=C(O)c1cccc2c1[nH]c1c3ccccc3oc21` yielded an IC50 of 30 µM. `O=C(O)c1cccc2c1Cc1c-2[nH]c2ccc(Cl)cc12` had an IC50 in assay [1] of 22.6 µM. With `O=C(O)c1cccc2c1[nH]c1c3cc(Br)ccc3oc21`, the IC50 in assay [1] was 15.1 µM; in assay [2] it was 118 µM. `O=C(O)c1cccc2c1Cc1c-2[nH]c2ccc(Br)cc12`: the IC50 amounted to 4.4 µM in assay [1] and 109 µM in assay [2].

Consider `O=C(O)c1cccc2c1[nH]c1c3cc([N+](=O)[O-])ccc3oc21`, for which the IC50 in assay [1] was 6.3 µM. In assay [1], `O=C(O)c1cccc2c1Cc1c-2[nH]c2ccc(I)cc12` had an IC50 of 10.1 µM. Still for that read-out and setting: the same measure for `O=C(O)c1cccc2c1[nH]c1c3cc(Cl)ccc3oc21`: 5.8 µM; for `O=C(O)c1cccc2c1[nH]c1c3cc(I)ccc3oc21`: 6.1 µM.

`NC(=O)c1cccc2c1[nH]c1c3cc(Br)ccc3oc21` displayed an IC50 in assay [1] of more than 30 µM. For `CC1(C)c2ccc([N+](=O)[O-])cc2-c2[nH]c3c(C(=O)O)cccc3c21`, the IC50 in assay [1] is 5.2 µM; in assay [2], 17.2 µM. In the case of `O=Cc1cccc2c1[nH]c1c3cc(Br)ccc3oc21`, the IC50 in assay [1] was more than 30 µM. For `O=C(O)c1cccc2c3c([nH]c12)-c1cc(Br)ccc1C3`, half-maximal inhibition in assay [2] (IC50) required 210 µM.

As usually defined, the IC50 is the point on the concentration scale where inhibition reaches its midpoint. Low readings indicate greater potency in that assay, high ones weaker potency in that assay.
